# Measurements published in paper PMC5650142, “GPR40 partial agonists and AgoPAMs: Differentiating effects on glucose and hormonal secretions in the rodent” (PLoS ONE, 2017).
# “And” between values parts separate entries of the source, which are not always exact repeats. Equal entries are not always repeated.
# Experiments:
# [1] = tested on: GK rats; experiment: Endogenous glucose production in vivo (2H/13C dual tracer); set-up: species or system rat; conditions: GK rats, 30 mpk, individual animal values (data for Fig 8); 30 mg/kg;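 for Glucose production, EGP Total: micromoles per kg body weight per minute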;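 for Glucose production, Glycerol: absolute flux in micromoles per kg per minute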;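 for Glucose production, Glycogen: absolute flux in micromoles per kg per minute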;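 for Glucose production, TCA: absolute flux in micromoles per kg per minute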
# Method: To evaluate the effects of the GPR40 partial and AgoPAM compounds on EGP in vivo, a 2H/13C dual tracer approach was used to calculate EGP and its contributing sources. Following the chronic treatments described above, 0.9% NaCl salinated deuterium oxide (D2O, Sigma-Aldrich, St. Louis, MO) was administered to all animals via intraperitoneal (IP) injection at dose volume of 20 ml/kg at 1 hr post lights on. Animals were then placed in clean cages and food was removed. After a 5 hour fast, blood glucose was measured and animals were dosed with 50 mg/kg [U-13C] glucose (Sigma-Aldrich, St. Louis, MO) IP at 5 ml/kg. Blood was collected via tail snip at time points from 60–150 min post treatment to measure blood glucose (via glucometer) as well as endogenous (12C-glucose) and exogenous (13C-glucose) via GCMS. Following the last tail blood collection, rats were anesthetized with isoflurane and cardiac blood was collected into K2EDTA tubes (Becton, Dickinson and Co., Franklin Lakes, NJ).
# The serially collected blood samples were analyzed for 13C-glucose enrichment using GC-MS analysis. The % 13C glucose enrichments were then combined with the total glucose readings to calculate the concentration of 13C-glucose, and these values were modeled with a two-compartment model of whole body glucose metabolism to calculate the average EGP for the period from 0–150 minutes.
# Terminal blood samples were analyzed for relative 2H enrichment in plasma glucose using the monoacetone glucose method. Briefly, samples were extracted with 70% perchloric acid at a ratio of 50 μl perchloric acid per 1 ml plasma and centrifuged at 25,000 rcf for 10 min at 4°C. The supernatant was collected and the pH was adjusted to 6–8 using aqueous KOH. The samples were then lyophilized overnight. To convert plasma glucose to monoacetone glucose (MAG), acetone and concentrated sulfuric acid were added to the lyophilized samples and stirred for 4 hours at room temperature. Water was then added and the pH adjusted to 2.0 with 3M Na2CO3. Samples were stirred moderately for 18 hours at room temperature, the pH was adjusted to 7 with 3M Na2CO3, and the samples were completely dried by speed vacuum concentration. The resulting MAG samples were then extracted in hot ethyl acetate, dried overnight under a stream of N2 gas, and purified using Discovery DSC-18 SPE columns (6 ml, 1 g bed weight). For the SPE protocol, MAG samples were reconstituted in 3 ml water and passed over the columns which were pre-washed with 2 ml methanol. The columns were rinsed twice with 1 ml water and the MAG was eluted with 5% acetonitrile. The acetonitrile eluent was then transferred to a glass scintillation vial and freeze dried. Purified MAG samples were solubilized in 180 μl 90% acetonitrile for 2H NMR analysis which was performed using the lock channel of a 950 MHz Bruker NMR spectrometer (David H Murdock Research Institute, DHMRI Kannapolis, NC). Acquisition parameters were as follows: 90° pulse, D1 = 1 s, 1H broadband decoupling, NS = 3600, acquisition time ~ 1 hr. The 2H NMR spectra of the MAG samples were then analyzed using Matlab (The Mathworks Inc, Natick, MA) to model the NMR peaks with a Lorentzian lineshape, and the results were used to calculate integrals for each of the seven NMR resonances in the MAG spectrum. Peaks 2, 5, and 6s were then used to calculate the relative sources of EGP (i.e. gluconeogenesis from TCA cycle substrates, glucose production from triose phosphates, and glycogenolysis) and these values were combined with the total EGP measurement to calculate absolute fluxes of glucose production.
# [2] = tested on: GK rats; experiment: GK rat chronic efficacy (28 days: glucose, food intake, body weight, GLP-1, GIP, PYY, insulin, glucagon); format: in vivo; conditions: 30 mpk; for Fasted glucose on day 28 (Fig 3B): day 28, fasted, individual animals
# Method: At the start of the study, fed (ambient) blood glucose was measured via glucometer at 1 h post lights on, and animals were selected and sorted into treatment groups based on ambient glucose (n = 10/ GK group, n = 6 WKY control). Blood for baseline incretin measurements was collected in the PM via tail vein. Rats were dosed via oral gavage (PO) at a volume of 5 ml/kg daily at approximately 12:30 PM with either vehicle (0.5% methylcellulose), AP1 at 30 mg/kg, or AP3 at 30 mg/kg. MK-8666, a GPR40 partial agonist synthesized at Merck & Co., Inc., Kenilworth, NJ USA [13], at 30 mg/kg was administered in feed (Research Diets, New Brunswick, NJ) and provided ad lib. All compounds were administered to achieve maximal efficacious exposures determined in acute efficacy studies similar to those acute studies described above. In brief, partial agonists and AgoPAMs were titrated in the acute GK rat experiment described above and the exposure associated with maximal efficacy in glucose lowering was noted. Partial agonists and AgoPAMs were then dosed to maintain those exposures up to 24h post dose. […] Rats from this group and the WKY controls were administered vehicle PO when the vehicle, AP1, and AP3 groups were treated. Fed blood glucose, food intake, and body weights were determined on days 10, 17, 23, and 28 of study at 2 h post lights on. Immediately after these measures were taken on days 10, 17, 23, and 28, food was removed. After 5h of fasting, animals were dosed with vehicle or compound and allowed to rest for an additional hour. Glucose, GLP-1, GIP, and PYY were measured after 6h of fasting at 1 hr post dose. Fed blood glucose is described by animals having had ad libidum access to feed up till the time of sampling and occurred at 2h post-lights on where rats were nearing the end of their nocturnal feeding cycle. Fasted blood glucose is described by blood glucose sampled after 6h of fasting where food was removed at 2h post lights on. Please note that the fasted sample was taken 1h post oral dosing. On day 10, blood was collected from the tail vein (20 μl) after morning glucose measures and after 6 hour fast from a subset of n = 3 rats per treatment group to determine the fed and fasted exposure of the compounds in circulation. The blood was stored at 4°C in 0.1 M sodium citrate for subsequent analysis of drug exposure.
# Blood for insulin, glucagon, GLP-1, GIP, and PYY measurements was collected into K2EDTA Microtainer tubes (BD, Franklin Lakes, NJ) pre-treated with DPP4 inhibitor (Millipore, Billerica, MA) and cOmplete™ Protease Inhibitor Cocktail Tablets (Roche Diagnostics, Indianapolis, IN). Tubes were centrifuged for 10 minutes at 5000 RPM, and plasma was aliquotted for analysis. Plasma insulin levels were measured via EIA (Mesoscale Discovery ELISA Kit, Gaithersburg MD). Rat plasma total GLP-1 was measured using Total GLP-1 (ver.2) Assay Kit (Cat#: K150JVC). The measurement of active GLP-1 was carried out in a similar manner as that described for total GLP-1 assay with the exception that MSD Active GLP-1 (ver. 2) assay kit (Cat# K150JWC) was used. Rat plasma glucagon was measured using an in-house glucagon assay developed as a MSD format sandwich immunoassay (Merck & Co., Inc., MRL, Kenilworth, NJ USA). The antibody specificity was cross validated via mass- spec using procedures described in Lee et al. Briefly, MSD Streptavidin Gold plates were coated with 2 μg/ml biotin mouse monoclonal antibody generated to glucagon. Test samples were added to the plates and a separate Sulfo- tagged monoclonal antibody was used to detect the captured glucagon protein (2 μg/ml). The ELISA was carried out in the standard reagents in the MSD format. The plate was read on the SECTOR Imager 6000 Reader. Metabolic hormones GIP (Gastric Inhibitory Polypeptide) and PYY (Peptide YY) were measured in rat plasma using the Rat Metabolic Magnetic Bead Panel (EMD Millipore, Billerica, MA). The assay was performed according to manufacturer protocol. […]
Compound,"Glucose production, EGP Total [1]","Glucose production, Glycerol [1]","Glucose production, Glycogen [1]","Glucose production, TCA [1]","Glucose Over time (S2 File, Fig 2A) ([2]; Day 0, individual animals)","Glucose Over time (S2 File, Fig 2A) ([2]; Day 10, individual animals)","Glucose Over time (S2 File, Fig 2A) ([2]; Day 17, individual animals)","Glucose Over time (S2 File, Fig 2A) ([2]; Day 23, individual animals)","Glucose Over time (S2 File, Fig 2A) ([2]; Day 28, individual animals)",Fasted glucose on day 28 (Fig 3B) [2]
COc1ccc(F)c(-c2ccc([C@@H]3CCc4ccc([C@H](C5CC5)[C@H](C)C(=O)O)cc4O3)cc2)c1 [L-254],61.3579 µmol/kg/min and 60.2311 µmol/kg/min and 73.9647 µmol/kg/min and 47.8618 µmol/kg/min and 64.0721 µmol/kg/min and 48.3077 µmol/kg/min and 46.8784 µmol/kg/min and 45.4367 µmol/kg/min and 55.8377 µmol/kg/min,10.657 µmol/kg/min and 6.4047 µmol/kg/min and 5.755 µmol/kg/min and 5.519 µmol/kg/min and 3.299 µmol/kg/min and 5.985 µmol/kg/min and 2.316 µmol/kg/min,22.6257 µmol/kg/min and 22.3444 µmol/kg/min and 14.5988 µmol/kg/min and 19.8177 µmol/kg/min and 18.6577 µmol/kg/min and 12.2721 µmol/kg/min and 17.7499 µmol/kg/min,26.9483 µmol/kg/min and 45.2155 µmol/kg/min and 27.5078 µmol/kg/min and 38.7357 µmol/kg/min and 26.3505 µmol/kg/min and 28.6217 µmol/kg/min and 25.3709 µmol/kg/min,162 mg/dL and 163 mg/dL and 174 mg/dL and 167 mg/dL and 198 mg/dL and 181 mg/dL and 193 mg/dL and 168 mg/dL and 160 mg/dL and 171 mg/dL,111 mg/dl and 110 mg/dl (2×) and 123 mg/dl and 100 mg/dl and 101 mg/dl and 106 mg/dl and 92 mg/dl and 99 mg/dl and 95 mg/dl,110 mg/dl and 118 mg/dl and 103 mg/dl (2×) and 138 mg/dl and 137 mg/dl and 96 mg/dl and 95 mg/dl and 124 mg/dl and 108 mg/dl,115 mg/dl and 109 mg/dl and 125 mg/dl and 106 mg/dl and 126 mg/dl (2×) and 127 mg/dl and 107 mg/dl and 117 mg/dl and 130 mg/dl,114 mg/dl and 98 mg/dl and 108 mg/dl and 105 mg/dl and 131 mg/dl and 113 mg/dl (2×) and 126 mg/dl and 121 mg/dl and 107 mg/dl,104 and 87 and 118 and 99 and 111 and 114 and 95 and 92
C[C@H](C(=O)O)[C@H](c1ccc2c(c1)O[C@H](C1CN(Cc3cc(C(F)(F)F)ccc3C(F)(F)F)C1)CC2)C1CC1 [L-846],61.0286 µmol/kg/min and 62.3968 µmol/kg/min and 60.5987 µmol/kg/min and 63.0498 µmol/kg/min and 58.2916 µmol/kg/min and 53.1262 µmol/kg/min and 50.1943 µmol/kg/min and 59.3349 µmol/kg/min,5.2866 µmol/kg/min and 7.6637 µmol/kg/min and 4.613 µmol/kg/min and 10.7135 µmol/kg/min and 9.19 µmol/kg/min and 7.224 µmol/kg/min and 6.179 µmol/kg/min and 7.862 µmol/kg/min,22.4627 µmol/kg/min and 29.4039 µmol/kg/min and 20.4093 µmol/kg/min and 17.187 µmol/kg/min and 19.1242 µmol/kg/min and 17.4656 µmol/kg/min and 16.9199 µmol/kg/min and 18.0022 µmol/kg/min,33.2793 µmol/kg/min and 25.3292 µmol/kg/min and 35.5765 µmol/kg/min and 35.1493 µmol/kg/min and 29.9769 µmol/kg/min and 28.4363 µmol/kg/min and 27.0955 µmol/kg/min and 33.4708 µmol/kg/min,162 mg/dL and 164 mg/dL and 165 mg/dL and 161 mg/dL and 182 mg/dL and 169 mg/dL and 204 mg/dL and 174 mg/dL and 186 mg/dL and 171 mg/dL,98 mg/dl and 122 mg/dl and 115 mg/dl and 114 mg/dl and 99 mg/dl (2×) and 103 mg/dl and 104 mg/dl and 100 mg/dl and 85 mg/dl,78 mg/dl and 96 mg/dl and 115 mg/dl and 110 mg/dl (2×) and 103 mg/dl and 108 mg/dl and 107 mg/dl and 101 mg/dl and 109 mg/dl,101 mg/dL and 120 mg/dL and 118 mg/dL and 110 mg/dL and 107 mg/dL and 103 mg/dL and 114 mg/dL and 129 mg/dL and 102 mg/dL and 106 mg/dL,112 mg/dl and 106 mg/dl and 113 mg/dl (3×) and 116 mg/dl and 101 mg/dl and 141 mg/dl and 132 mg/dl and 119 mg/dl,104 and 110 and 84 and 100 and 96 and 87 and 101 and 99 and 103
